Values quoted from earlier work in patent US4086220A, “Fragments of secretin” (G. D. Searle & Co., priority 1976, dated 1978).

Conditions: on a molar basis; parent molecule = intact secretin

Amino acid fragments of the molecule from position 1 to 14: Secretin fragment, positions 1 to 14 (containing the helical portion), reported in literature (Rayford et al.) (HSDGTFTSELSRLR; Secretin; UniProt P09683 28-41, looked up, fragment)
lipolytic activity relative to that of the parent molecule: about 0.5%
